Where a name gives a salt, the structure may show the parent alone. Read-outs that look alike come from different tables or passages of the source.
Key:
HTT mRNA = experiment: RT-qPCR splicing assay, HTT canonical junction (CJ) and alternative junction (AJ) mRNA; format: cell-based, human; details: Homo sapiens; for AC50: increase in HTT alternative junction (AJ) mRNA, read-out: HTT AJ AC50
Method in brief: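 Following a 24-hour incubation of A673 or K562 cells with serially diluted compound (3-fold steps, highest final 10 uM), the lysates undergo cDNA synthesis plus qPCR. Canonical and alternative junctions are each quantified against PPIA, GAPDH or GUSB.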

SMN2 mRNA = experiment: RT-qPCR splicing assay, SMN2 canonical junction (CJ) mRNA; format: cell-based, human; details: Homo sapiens; Table 5 panel; canonical junction qPCR; compound concentration having 50% response in CJ decrease; read-out: SMN2 IC50 (decrease in CJ mRNA levels)
Method in brief: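 K562/A673 cells, 11-pt 3-fold compound titration from 10 uM final, DMSO ≤0.25%, 24 h 37 °C 5% CO2; lyse (DNase I or Igepal/Tris buffer pH 7.4); RT-qPCR for CJ isoform vs housekeeping gene (GAPDH/GUSB/PPIA).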

[1] = decrease in HTT canonical junction (CJ) mRNA, RT-qPCR, read-out: HTT CJ IC50
[2] = Table 5 panel, canonical junction qPCR, compound concentration having 50% response in CJ decrease, read-out: HTT IC50 (decrease in CJ mRNA levels)

| IC50 (HTT mRNA; [1]) | IC50 (HTT mRNA; [2]) | IC50 (SMN2 mRNA) | Compound | AC50 (HTT mRNA; RT-qPCR) |
| --- | --- | --- | --- | --- |
| 0.1 to 1 µM | < 0.1 µM | < 0.1 µM | Cc1cn2cc(-c3cc(F)c4c(=O)n(C5CC(C)NC(C)C5)ccc4c3)cc(F)c2n1 (centres unmarked) [Compound 651] | < 0.1 µM |
| 1 to 10 µM | > 10 µM | 0.1 to 1 µM | Cc1cn2nc(-c3ccc4c(=O)n(C5CCNCC5)ccc4c3)cc(C(N)=O)c2n1 [Compound 523, 2-methyl-6-[1-oxo-2-(4-piperidyl)-6-isoquinolyl]imidazo[1,2-b]pyridazine-8-carboxamide] | > 10 µM |
| 1 to 10 µM | 1 to 10 µM | 1 to 10 µM | Cn1ccc2c(cnn2-c2ccc3c(=O)n(C4CCNCC4)ccc3c2)c1=O [Compound 521] | 1 to 10 µM |
| < 0.1 µM | < 0.1 µM | < 0.1 µM | Cc1cn2nc(-c3cc(F)c4c(=O)n(C5CCNCC5)ncc4c3)cc(Oc3ccccc3)c2n1 [Compound 548, 8-fluoro-6-(2-methyl-8-phenoxy-imidazo[1,2-b]pyridazin-6-yl)-2-(4-piperidyl)phthala-zin-1-one] | < 0.1 µM |
| < 0.1 µM | < 0.1 µM | < 0.1 µM | Cc1cn2nc(-c3ccc4c(=O)n(C5CCNCC5)ccc4c3)cc(Oc3ccccc3F)c2n1 [Compound 544, 6-[8-(2-fluorophenoxy)-2-methyl-imidazo[1,2-b]pyridazin-6-yl]-2-(4-piperidyl) isoquinolin-1-one; hydrochloride] | < 0.1 µM |
| < 0.1 µM | < 0.1 µM | < 0.1 µM | Cc1cn2nc(-c3cc(O)c4c(=O)n(C5CCN(CCF)CC5)ncc4c3)cc(C)c2n1 [Compound 553] | < 0.1 µM |
| 1 to 10 µM | 0.1 to 1 µM | < 0.1 µM | Cc1cn2cc(-c3cc(F)c4c(=O)n([C@@H]5C[C@@H](C)N[C@@H](C)C5)ccc4c3)cc(F)c2n1 [Compound 642, 2-[(2S,6R)-2,6-dimethyl-4-piperidyl]-8-fluoro-6-(8-fluoro-2-methyl-imidazo[1,2-a]pyridin-6-yl)isoquinolin-1-one] | 0.1 to 1 µM |
| < 0.1 µM | < 0.1 µM | < 0.1 µM | Cc1cn2nc(-c3ccc4c(=O)n(C5CCNCC5)ccc4c3)cc(Oc3ccccc3)c2n1 [Compound 519, 6-(2-methyl-8-phenoxy-imidazo[1,2-b]pyridazin-6-yl)-2-(4-piperidyl)isoquinolin-1-one] | < 0.1 µM |
| < 0.1 µM | < 0.1 µM | < 0.1 µM | CCN1CCC(n2ncc3cc(-c4cc(C)c5nc(C)cn5n4)cc(O)c3c2=O)CC1 [Compound 542] | < 0.1 µM |
| 0.1 to 1 µM | 0.1 to 1 µM | < 0.1 µM | Cc1cn2nc(-c3ccc4c(=O)n(C5CCNCC5)ccc4c3)cc(OCc3ccccc3)c2n1 [Compound 526, 6-(8-benzyloxy-2-methyl-imidazo[1,2-b]pyridazin-6-yl)-2-(4-piperidyl) isoquinolin-1-one] | 0.1 to 1 µM |
| > 10 µM | > 10 µM | > 10 µM | Cc1cn2nc(-c3ccc4c(=O)n(C5CCNCC5)ccc4c3)cc(C(=O)N(C)C)c2n1 [Compound 524, N, N, 2-trimethyl-6-[1-oxo-2-(4-piperidyl)-6-isoquinolyl]imidazo[1,2-b]pyridazine-8-carboxamide] | > 10 µM |
| < 0.1 µM | < 0.1 µM | < 0.1 µM | COc1cc(-c2ccc3c(=O)n(C4CCNCC4)ccc3c2)nn2cc(C)nc12 [Compound 514, 6-(8-methoxy-2-methyl-imidazo[1,2-b]pyridazin-6-yl)-2-(4-piperidyl) isoquinolin-1-one; hydrochloride] | < 0.1 µM |
| 0.1 to 1 µM | < 0.1 µM | < 0.1 µM | Cc1cn2nc(-c3cc(O)c4c(=O)n(C5CCN(C)CC5)ncc4c3)cc(C)c2n1 [Compound 543] | < 0.1 µM |
| 0.1 to 1 µM | 0.1 to 1 µM | 0.1 to 1 µM | Cc1cc(-c2cc(O)c3c(=O)n(C4CCNC5(CC5)C4)ncc3c2)cc2cn(C)nc12 (centres unmarked) [Compound 561] | 0.1 to 1 µM |
| > 10 µM | 1 to 10 µM | 0.1 to 1 µM | CNc1cc(-c2cc(C)c3nc(C)cn3n2)cc2ccn([C@H]3CCNC3)c(=O)c12 [Compound 647, 6-(2,8-dimethylimidazo[1,2-b]pyridazin-6-yl)-8-(methylamino)-2-[(3S)-pyrrolidin-3-yl]isoquinolin-1-one] | 1 to 10 µM |
| 1 to 10 µM | 0.1 to 1 µM | 0.1 to 1 µM | Cc1cc(-c2ccc3c(=O)n(C4CCNC5(CC5)C4)ncc3c2)cc2cn(C)nc12 (centres unmarked) [Compound 512] | 0.1 to 1 µM |
| 0.1 to 1 µM | < 0.1 µM | < 0.1 µM | C=Cc1cn(C2CCNCC2)c(=O)c2c(F)cc(-c3cc(F)c4nc(C)cn4c3)cc12 [Compound 559, 4-ethenyl-8-fluoro-6-{8-fluoro-2-methylimidazo[1,2-a]pyridin-6-yl}-2-(piperidin-4-yl)isoquinolin-1-one] | < 0.1 µM |
| 1 to 10 µM | 1 to 10 µM | 0.1 to 1 µM | Cc1cn2nc(-c3ccc4c(=O)n(C5CCN(C)CC5)cnc4c3)cc(C)c2n1 [Compound 176] | 1 to 10 µM |
| < 0.1 µM | < 0.1 µM | < 0.1 µM | COc1cccc(Oc2cc(-c3ccc4c(=O)n(C5CCNCC5)ccc4c3)nn3cc(C)nc23)c1 [Compound 547, 6-[8-(3-methoxyphenoxy)-2-methyl-imidazo[1,2-b]pyridazin-6-yl]-2-(4 piperidyl) isoquinolin-1-one] | < 0.1 µM |
| 0.1 to 1 µM | 0.1 to 1 µM | < 0.1 µM | Cc1cc(-c2cc(F)c3c(=O)n(C4CCNC5(CC5)C4)ncc3c2)cc2cn(C)nc12 (centres unmarked) [Compound 554] | 0.1 to 1 µM |
| 0.1 to 1 µM | < 0.1 µM | < 0.1 µM | Cc1cn2nc(-c3ccc4c(=O)n(C5CCNCC5)ccc4c3)cc(CC(=O)O)c2n1 [Compound 531, 2-[2-methyl-6-[1-oxo-2-(4-piperidyl)-6-isoquinolyl]imidazo[1,2-b]pyridazin-8-yl]acetic acid] | < 0.1 µM |

| Compound | IC50 (HTT mRNA; [1]) | IC50 (HTT mRNA; [2]) | IC50 (SMN2 mRNA) | AC50 (HTT mRNA; RT-qPCR) |
| --- | --- | --- | --- | --- |
| Cc1cn2nc(-c3ccn4c(=O)c(C5=CCNCC5)ncc4c3)cc(C)c2n1 [Compound 1182] | 0.1 to 1 µM | 0.1 to 1 µM | 0.1 to 1 µM | 0.1 to 1 µM |
| CN(c1ccc2c(=O)n(-c3ccc4nn(C)cc4c3)cnc2c1)C1CCNCC1 [Compound 180] | > 10 µM | > 10 µM | > 10 µM | > 10 µM |

— patent US20250332173A1, “COMPOUNDS AND METHODS FOR MODULATING NUCLEIC ACID SPLICING” (REMIX THERAPEUTICS INC., priority 2021, published 2025)
